ChEMBL document CHEMBL1157012, “Neural computational prediction of oral drug absorption based on CODES 2D descriptors” (Eur J Med Chem, 2010)

Assay: Human intestinal absorption in po dosed human
Conditions: in vivo

| Compound | Fa |
| --- | --- |
| Nc1nc2c(ncn2COCCO)c(=O)[nH]1 [ACYCLOVIR] | 23% |
| C#C[C@]1(O)CC[C@H]2[C@@H]3CCc4cc(O)ccc4[C@H]3CC[C@@]21C [ETHINYL ESTRADIOL] | 100% |
| CC1(C)S[C@@H]2[C@H](NC(=O)Cc3ccccc3)C(=O)N2[C@H]1C(=O)O [PENICILLIN G] | 30% |
| CC1(C)S[C@@H]2[C@H](NC(=O)C(C(=O)Oc3ccccc3)c3ccccc3)C(=O)N2[C@H]1C(=O)O (stereo partly drawn) [CARBENICILLIN PHENYL] | 99% |
| CN1C(C(=O)Nc2ccccn2)=C(O)c2sccc2S1(=O)=O [TENOXICAM] | 100% |
| CCc1[nH]c(=O)[nH]c1C(=O)c1ccncc1 [PIROXIMONE] | 80% |
| O=C(O)c1cccnc1 [NIACIN] | 88% |
| C[C@H](N[C@@H](CCc1ccccc1)C(=O)O)C(=O)N1CCC[C@H]1C(=O)O [ENALAPRILAT ANHYDROUS] | 25% |
| NCCCC(N)(C(=O)O)C(F)F (stereo not drawn) [EFLORNITHINE] | 55% |
| ClC(Cl)Cl [CHLOROFORM] | 100% |
| Cc1ccc(/C(=C\CN2CCCC2)c2cccc(/C=C/C(=O)O)n2)cc1 [ACRIVASTINE] | 88% |
| CC(=O)S[C@@H]1CC2=CC(=O)CC[C@]2(C)[C@H]2CC[C@@]3(C)[C@@H](CC[C@@]34CCC(=O)O4)[C@H]12 [SPIRONOLACTONE] | 73% |
| Cc1cn([C@H]2C[C@H](N=[N+]=[N-])[C@@H](CO)O2)c(=O)[nH]c1=O [ZIDOVUDINE] | 100% |
| C[C@H](N)Cc1ccccc1 [DEXTROAMPHETAMINE] | 90% |
| C[C@H]1C[C@@H]2[C@H]([C@@H](O)C[C@@]3(C)[C@H]2CC[C@]3(O)C(=O)CO)[C@@]2(C)C=CC(=O)C=C12 [METHYLPREDNISOLONE] | 82% |
| NCC(=O)O [GLYCINE] | 100% |
| O=C([O-])c1cc(=O)c2c(OCC(O)COc3cccc4oc(C(=O)[O-])cc(=O)c34)cccc2o1.[Na+].[Na+] [CROMOLYN SODIUM] | 4% |
| CO[C@H]1C[C@H](O[C@H]2CC[C@]3(C=O)[C@H]4CC[C@]5(C)[C@@H](C6=CC(=O)OC6)CC[C@]5(O)[C@@H]4CC[C@]3(O)C2)O[C@H](C)[C@H]1O [CYMARIN] | 47% |
| N[C@@H](Cc1ccc(O)c(O)c1)C(=O)O [LEVODOPA] | 86% |
| CC(CCc1ccccc1)NCC(O)c1ccc(O)c(C(N)=O)c1 (stereo not drawn) [LABETALOL] | 95% |
| OC[C@@H](O)[C@@H](O)[C@H](O)[C@H](O)CO [MANNITOL] | 16% |
| CCCC(=O)Nc1ccc(OCC(O)CNC(C)C)c(C(C)=O)c1 (stereo not drawn) [ACEBUTOLOL] | 80% |
| CNC(=O)c1c(I)c(NC(C)=O)c(I)c(C(=O)[O-])c1I.[Na+] [IOTHALAMATE SODIUM] | 2% |
| Cc1cccc(Nc2ccncc2S(=O)(=O)NC(=O)NC(C)C)c1 [TORSEMIDE] | 96% |

| Compound | Fa |
| --- | --- |
| CC(C)(C)NCC(O)c1ccc(O)c(CO)n1 (stereo not drawn) [PIRBUTEROL] | 60% |
| CCN1CCCC1CNC(=O)c1cc(S(N)(=O)=O)ccc1OC (stereo not drawn) [SULPIRIDE] | 44% |
| CN1C(C(=O)Nc2nccs2)=C(O)c2ccccc2S1(=O)=O [SUDOXICAM] | 100% |
| CC[C@H](C)C(=O)O[C@H]1C[C@H](O)C=C2C=C[C@H](C)[C@H](CC[C@@H](O)C[C@@H](O)CC(=O)O)[C@H]21 [PRAVASTATIN] | 34% |
| N[C@@H](C(=O)N[C@@H]1C(=O)N2C(C(=O)O)=C(Cl)CC[C@H]12)c1ccccc1 [LORACARBEF ANHYDROUS] | 100% |
| COc1cccc(C2(O)CCCCC2CN(C)C)c1 (stereo not drawn) [TRAMADOL] | 90% |
| NS(=O)(=O)c1cc(-c2nnn[nH]2)c(NCc2cccs2)cc1Cl [AZOSEMIDE] | 10% |
| CNC(=C[N+](=O)[O-])NCCSCc1csc(CN(C)C)n1 [NIZATIDINE] | 90% |
| COC(=O)C1=C(C)NC(C)=C(C(=O)OCC(C)C)C1c1ccccc1[N+](=O)[O-] (stereo not drawn) [NISOLDIPINE] | 89% |
| CC(=O)Nc1ccc(O)cc1 [ACETAMINOPHEN] | 80% |
| NCCCC[C@H](N[C@@H](CCc1ccccc1)C(=O)O)C(=O)N1CCC[C@H]1C(=O)O [LISINOPRIL ANHYDROUS] | 28% |
| Nc1cc(-c2ccncc2)c[nH]c1=O [INAMRINONE] | 93% |
| CC(C(=O)O)c1ccc(C2CCCC(=NO)C2)cc1 (stereo not drawn) [XIMOPROFEN] | 98% |
| NS(=O)(=O)c1cc2c(cc1Cl)NCNS2(=O)=O [HYDROCHLOROTHIAZIDE] | 69% |
| COc1ccc(CCN(C)CCCC(C#N)(c2ccc(OC)c(OC)c2)C(C)C)cc1OC (stereo not drawn) | 97% |
| CC(C)NCC(O)c1ccc(NS(C)(=O)=O)cc1 (stereo not drawn) [SOTALOL] | 95% |
| O=C(N[C@H](CO)[C@H](O)c1ccc([N+](=O)[O-])cc1)C(Cl)Cl [CHLORAMPHENICOL] | 90% |
| N[C@H](Cc1ccccc1)C(=O)N1CCC[C@H]1C(=O)O | 100% |
| NC(=O)c1ncn([C@@H]2O[C@H](CO)[C@@H](O)[C@H]2O)n1 [RIBAVIRIN] | 33% |
| Cc1ccc(S(=O)(=O)NC(=O)NN2CC3CCCC3C2)cc1 (stereo not drawn) [GLICLAZIDE] | 65% |
| COc1cc(Cc2cnc(N)nc2N)cc(OC)c1OC [TRIMETHOPRIM] | 97% |
| N=C(N)NCC1COc2ccccc2O1 (stereo not drawn) [GUANOXAN] | 50% |
| Cc1cnc(NC(=O)C2=C(O)c3ccccc3S(=O)(=O)N2C)s1 [MELOXICAM] | 90% |
| O=C(O)c1cc(/N=N/c2ccc(O)c(C(=O)O)c2)ccc1O [OLSALAZINE] | 24% |

| Compound | Fa |
| --- | --- |
| COc1ccc2c3c1O[C@H]1[C@@H](O)CC[C@H]4[C@@H](C2)N(C)CC[C@@]341 [DIHYDROCODEINE] | 88% |
| C[C@@H]1O[C@@H](O[C@H]2C[C@@H](O)[C@]3(CO)[C@H]4[C@H](O)C[C@]5(C)[C@@H](C6=CC(=O)OC6)CC[C@]5(O)[C@@H]4CC[C@]3(O)C2)[C@H](O)[C@H](O)[C@H]1O [OUABAIN] | 1% |
| C[C@]12CC[C@H]3[C@@H](CCC4=CC(=O)CC[C@@]43C)[C@@H]1CC[C@@H]2O [TESTOSTERONE] | 100% |
| CNCCCN1c2ccccc2CCc2ccccc21 [DESIPRAMINE] | 100% |
| CN(CCCCCCN(C)C(=O)Oc1ccc[n+](C)c1)C(=O)Oc1ccc[n+](C)c1.[Br-].[Br-] [DISTIGMINE BROMIDE] | 8% |
| O=C1CN=C(c2ccccn2)c2cc(Br)ccc2N1 [BROMAZEPAM] | 84% |
| CCCc1nc2c(C)cc(-c3nc4ccccc4n3C)cc2n1Cc1ccc(-c2ccccc2C(=O)O)cc1 | 90% |
| CN1C(C(=O)Nc2ccccn2)=C(O)c2sc(Cl)cc2S1(=O)=O [LORNOXICAM] | 100% |
| Nc1ccn([C@@H]2CS[C@H](CO)O2)c(=O)n1 [LAMIVUDINE] | 85% |
| COc1cc([C@@H]2c3cc4c(cc3[C@@H](O[C@@H]3O[C@@H]5CO[C@@H](C)O[C@H]5[C@H](O)[C@H]3O)[C@H]3COC(=O)[C@H]23)OCO4)cc(OC)c1O [ETOPOSIDE] | 50% |
| COc1ccc(Cl)cc1C(=O)NCCc1ccc(S(=O)(=O)NC(=O)NC2CCCCC2)cc1 [GLYBURIDE] | 100% |
| Cn1c(=O)c2c(ncn2C)n(C)c1=O [CAFFEINE] | 100% |
| CCCOC(C(=O)OC1CCN(C)CC1)(c1ccccc1)c1ccccc1 [PROPIVERINE] | 84% |
| CC(C)(C)NCC(O)c1cc(O)cc(O)c1 (stereo not drawn) [TERBUTALINE] | 62% |
| CN1C(=O)C(O)N=C(c2ccccc2Cl)c2cc(Cl)ccc21 (stereo not drawn) [LORMETAZEPAM] | 100% |
| O=C(NCC1CCCCN1)c1cc(OCC(F)(F)F)ccc1OCC(F)(F)F (stereo not drawn) [FLECAINIDE] | 81% |
| COCC(=O)O[C@]1(CCN(C)CCCc2nc3ccccc3[nH]2)CCc2cc(F)ccc2[C@@H]1C(C)C [MIBEFRADIL] | 69% |
| COc1ccc(C(CN(C)C)C2(O)CCCCC2)cc1 (stereo not drawn) [VENLAFAXINE] | 97% |
| Nc1ncnc2c1ncn2CCOCP(=O)(O)O [ADEFOVIR] | 16% |
| CCCc1cc(=O)[nH]c(=S)[nH]1 [PROPYLTHIOURACIL] | 76% |
| Clc1cccc(Cl)c1N=C1NCCN1 [CLONIDINE] | 95% |
| NNC(=O)c1ccncc1 [ISONIAZID] | 80% |
| COc1cc2nc(N3CCN(C(=O)c4ccco4)CC3)nc(N)c2cc1OC [PRAZOSIN] | 86% |
| COc1ccc(CCN(C)CCCC(C#N)(c2cc(OC)c(OC)c(OC)c2)C(C)C)cc1OC (stereo not drawn) [GALLOPAMIL] | 100% |

| Compound | Fa |
| --- | --- |
| CCC[C@@H]1C[C@@H](C(=O)N[C@@H]([C@H]2O[C@H](SC)[C@H](O)[C@@H](O)[C@H]2O)[C@@H](C)O)N(C)C1 [LINCOMYCIN] | 28% |
| CCc1nn(CCCN2CCN(c3cccc(Cl)c3)CC2)c(=O)n1CCOc1ccccc1 [NEFAZODONE] | 100% |
| CN(C)CCOc1ccc(/C(=C(/CCCl)c2ccccc2)c2ccccc2)cc1 [TOREMIFENE] | 100% |
| CC1(C)O[C@@H]2[C@@H](CO[C@@]3(COS(N)(=O)=O)OC(C)(C)O[C@@H]23)O1 [TOPIRAMATE] | 86% |
| CN1C2CCCC1CC(NC(=O)c1nn(C)c3ccccc13)C2 (stereo not drawn) [GRANISETRON] | 100% |
| Oc1ccc(C(O)C2CCCCN2)cc1O (stereo not drawn) [RIMITEROL] | 48% |
| CC(C)NCC(O)COc1cccc2[nH]ccc12 (stereo not drawn) [PINDOLOL] | 87% |
| CN1C(C(=O)Nc2ccccn2)=C(O)c2ccccc2S1(=O)=O [PIROXICAM] | 100% |
| NC(N)=Nc1nc(CSCCC(N)=NS(N)(=O)=O)cs1 [FAMOTIDINE] | 28% |
| CC#Cc1cn([C@@H]2O[C@H](CO)[C@@H](O)[C@@H]2O)c(=O)[nH]c1=O [NETIVUDINE] | 28% |
| C=CC(N)CCC(=O)O (stereo not drawn) [VIGABATRIN] | 58% |
| N=C(N)NC(=O)c1nc(Cl)c(N)nc1N [AMILORIDE] | 50% |
| O=C1O[C@H]([C@@H](O)CO)C(O)=C1O [ASCORBIC ACID] | 35% |
| CO/N=C(\C(=O)N[C@@H]1C(=O)N2C(C(=O)OC(C)OC(C)=O)=C(COC(N)=O)CS[C@H]12)c1ccco1 (stereo partly drawn) [CEFUROXIME AXETIL] | 44% |
| C=CCOc1ccccc1OCC(O)CNC(C)C (stereo not drawn) [OXPRENOLOL] | 95% |
| O=C(O)c1cc(/N=N/c2ccc(S(=O)(=O)Nc3ccccn3)cc2)ccc1O [SULFASALAZINE] | 59% |
| O=CN(O)CCCP(=O)(O)O [FOSMIDOMYCIN] | 30% |
| CC(=O)Oc1ccccc1C(=O)O [ASPIRIN] | 82% |
| NC(=O)N1C(=O)/C(=C(\O)c2cccs2)c2cc(Cl)ccc21 [TENIDAP] | 89% |
| CN/C(=N/CCSCc1nc[nH]c1C)NC#N [CIMETIDINE] | 64% |
| O=C(O)c1ccccc1O [SALICYLIC ACID] | 100% |
